This is an account of results in US6838453B2, “Antagonist derivatives of the vitronectin receptor” (Aventis Pharma S.A., priority 2000, dated 2005).

Structures can show the parent of a compound that is named as a salt.

Sequence of human αvβ3 receptor (P06756 31-889 limits assumed): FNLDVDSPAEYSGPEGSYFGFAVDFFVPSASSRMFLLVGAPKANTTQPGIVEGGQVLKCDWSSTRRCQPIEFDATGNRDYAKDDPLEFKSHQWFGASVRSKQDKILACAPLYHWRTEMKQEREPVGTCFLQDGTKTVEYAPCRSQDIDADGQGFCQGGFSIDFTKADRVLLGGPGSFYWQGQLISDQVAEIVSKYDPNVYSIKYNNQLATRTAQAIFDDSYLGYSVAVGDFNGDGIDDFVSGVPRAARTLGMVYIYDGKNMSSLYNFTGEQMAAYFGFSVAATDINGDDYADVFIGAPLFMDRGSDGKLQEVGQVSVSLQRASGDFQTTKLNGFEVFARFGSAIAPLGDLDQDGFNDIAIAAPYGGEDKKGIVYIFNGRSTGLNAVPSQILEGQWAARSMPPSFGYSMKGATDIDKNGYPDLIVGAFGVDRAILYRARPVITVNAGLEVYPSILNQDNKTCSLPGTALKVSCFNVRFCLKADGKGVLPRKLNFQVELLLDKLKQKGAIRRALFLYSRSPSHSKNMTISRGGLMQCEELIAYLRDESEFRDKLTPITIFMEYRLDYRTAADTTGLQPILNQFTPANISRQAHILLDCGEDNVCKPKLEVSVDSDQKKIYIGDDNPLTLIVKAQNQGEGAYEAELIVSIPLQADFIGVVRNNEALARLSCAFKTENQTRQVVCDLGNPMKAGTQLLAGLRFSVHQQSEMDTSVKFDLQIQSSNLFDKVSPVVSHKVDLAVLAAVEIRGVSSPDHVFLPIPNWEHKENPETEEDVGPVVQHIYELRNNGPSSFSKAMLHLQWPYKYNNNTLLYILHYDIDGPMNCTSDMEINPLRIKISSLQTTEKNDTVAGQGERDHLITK
Sequence of human αvβ3 receptor (P06756 891-1048 limits assumed): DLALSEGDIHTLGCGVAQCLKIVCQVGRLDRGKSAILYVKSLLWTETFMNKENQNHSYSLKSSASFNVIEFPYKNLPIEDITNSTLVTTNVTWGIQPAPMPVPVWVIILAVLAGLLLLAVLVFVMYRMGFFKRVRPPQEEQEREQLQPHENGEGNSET
Sequence of human αvβ3 receptor (P05106 27-788): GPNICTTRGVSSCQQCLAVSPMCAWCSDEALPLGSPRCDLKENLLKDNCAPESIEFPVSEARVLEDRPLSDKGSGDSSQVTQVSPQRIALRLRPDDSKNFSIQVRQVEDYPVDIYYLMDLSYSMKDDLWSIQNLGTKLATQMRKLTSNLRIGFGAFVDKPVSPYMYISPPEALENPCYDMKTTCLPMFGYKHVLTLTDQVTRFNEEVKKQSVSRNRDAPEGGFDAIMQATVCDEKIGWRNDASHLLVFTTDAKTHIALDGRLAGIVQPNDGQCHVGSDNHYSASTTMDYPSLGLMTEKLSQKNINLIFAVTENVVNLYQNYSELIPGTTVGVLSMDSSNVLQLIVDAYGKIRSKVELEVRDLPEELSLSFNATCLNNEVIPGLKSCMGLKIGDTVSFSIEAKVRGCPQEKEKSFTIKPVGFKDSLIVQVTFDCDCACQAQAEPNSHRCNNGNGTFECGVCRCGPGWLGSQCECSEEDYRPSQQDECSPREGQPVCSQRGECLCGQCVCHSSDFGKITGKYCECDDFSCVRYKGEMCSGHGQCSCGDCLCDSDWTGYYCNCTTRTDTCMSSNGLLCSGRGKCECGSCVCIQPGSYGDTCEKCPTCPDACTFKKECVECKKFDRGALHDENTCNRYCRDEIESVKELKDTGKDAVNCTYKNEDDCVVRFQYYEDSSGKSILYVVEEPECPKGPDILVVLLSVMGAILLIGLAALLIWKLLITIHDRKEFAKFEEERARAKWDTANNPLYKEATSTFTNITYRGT

This assay has as its target human αvβ3 receptor (Homo sapiens, UniProt P05106+P06756). As to the kind of experiment: Kistrin/Vitronectin Receptor (αvβ3) ELISA test. The following applies: Kistrin-coated plates, co-incubated 3 hours at ambient temperature, 4B12-HRP antibody, OD 450 nm, read-out: K/VnR IC50. Format: binding. On the procedure:
Kistrin/Vitronectin Receptor (αvβ3) ELISA Test
96-well MaxiSorp planes are coated overnight at […] with 100 μl of Kistrin at 1 μg/ml (dilution in a coating buffer: carbonate 0.05 M/NaOH pH 9.6). The next day, the wells are emptied and the ligands (kistrin) are then fixed (fixing buffers: PBS containing 0.5% BSA (pH=7.4)) for 1 hour at ambient temperature with gentle agitation at 125 rpm. The wells are washed six times (washing buffer: PBS containing 0.05% of Tween 20 (pH 7.7) then the following are added per well and in this order: • 40 μl of incubation buffer • 10 μl of the dilution of the product to be tested (the products are diluted in a 50:50 mixture DMSO/Water) • 50 μl of human αvβ3 receptor (cf Pytella et al. Methods Enzymol. (1987) 144 (Dilution in incubation buffer, to be adapted according to the receptor batch and according to the ligand). The ligand, the αvβ3 receptor and the products to be studied are co-incubated for 3 hours at ambient temperature with gentle agitation at 125 rpm.
The wells are again washed six times, then incubated for 2 hours at ambient temperature with gentle agitation at 125 rpm, in the presence of 100 μl of anti-receptor antibody conjugated to a peroxidase (The 4B12-HRP antibody is diluted in an incubation buffer (50 mM TRIS pH 7.4; 0.5% BSA; 0.05% Tween 20; 1 mM MnCl2; 50 μM CaCl2; 50 μM MgCl2; 100 mM NaCl) The dilution is adapted according to the receptor batch.
The wells are then washed six times before measuring the ligand-receptor bond carried out using a peroxidase developer kit (TBM Microwell Peroxidase Substrate System Kirkegaard; Cat. Ref. 50-76-00).
This kit contains a bottle A of substrate (3,3′,5,5′-tetramethylebenzidine at 0.4 g/l) and a bottle B (H2O2 at 0.02% in a Citrate/Citric acid buffer). Extemporaneously, a volume of A is mixed with a volume of B, then the reaction mixture is distributed at a rate of 100 μl/well.
The enzymatic reaction develops between 6 and 10 minutes for Kistrin/αvβ3 then its evolution is stopped by the addition of 100 μl of 1M phosphoric acid. The optical density is determined at 450 nm.
Expression of the Results
The following curve is plotted: the bond percentage as a function of the logarithm of each concentration of the tested product.
For each product, the IC50 is determined according to the following formula: IC50=(B0+Bmin)/2 • B0=Maximum bond in the absence of any product • Bmin =Minimum bond in the presence of the highest concentration of the product.
For orientation: An ELISA detects its analyte on a solid surface through an enzyme-linked reagent.
For the molecule `O=C(O)[C@H](Cc1ccc(OCCCc2ccc3c(n2)NCCC3)cc1)Nc1nnnn1Cc1ccccc1` [Example 1, N-[1-(phenylmethyl)-1H-tetrazol-5-yl]-O-[3-(5,6,7,8-tetrahydro-1,8-naphthyridin-2-yl)propyl]-L-tyrosine], the IC50 is 9 nM. Consider `O=C(O)[C@H](Cc1ccc(OCCCc2ccc3c(n2)NCCC3)cc1)Nc1nc2ccccc2s1` [Example 2, N-(2-benzothiazolyl)-O-[3-(5,6,7,8-tetrahydro-1,8-naphthyridin-2-yl)propyl]-L-tyrosine], for which the IC50 is 70 nM. The figure for `O=C(O)[C@H](Cc1ccc(OCCCc2ccc3c(n2)NCCC3)cc1)Nc1nc2ccccc2o1` [Example 3, N-(2-benzoxazolyl)-O-[3-(5,6,7,8-tetrahydro-1,8-naphthyridin-2-yl)propyl]-L-tyrosine] is 50 nM. On to `COc1ccc2[nH]c(N[C@@H](Cc3ccc(OCCCC(=O)NC4=NCCCN4)cc3)C(=O)O)nc2c1` [Example 4a], for which the IC50 turned out to be 19 nM. Regarding `Cc1ccc2[nH]c(N[C@@H](Cc3ccc(OCCCC(=O)NC4=NCCCN4)cc3)C(=O)O)nc2c1` [Example 4b, N-[5-methyl-1H-benzimidazol-2-yl]-O-[4-oxo-4-[(1,4,5,6-tetrahydro-2-pyrimidinyl)amino]butyl]-L-tyrosine], the IC50 worked out at 14 nM. For `O=C(CCCOc1ccc(C[C@H](Nc2nnnn2Cc2ccccc2)C(=O)O)cc1)NC1=NCCCN1` [Example 5, O-[4-oxo-4-[(1,4,5,6-tetrahydro-2-pyrimidinyl)amino]butyl]-N-[1-(phenylmethyl)-1H-tetrazol-5-yl]-L-tyrosine], the IC50 came to 15 nM. For `O=C(CCCOc1ccc(C[C@H](Nc2nc3ccccc3o2)C(=O)O)cc1)NC1=NCCCN1` [Example 6, N-(2-benzoxazolyl)-O-[4-oxo-4-[(1,4,5,6-tetrahydro-2-pyrimidinyl)amino]butyl]-L-tyrosine] the value was 5 nM. `O=C(CCCOc1ccc(C[C@H](Nc2nc3ccccc3s2)C(=O)O)cc1)NC1=NCCCN1` [Example 7, N-(2-benzothiazolyl)-O-[4-oxo-4-[(1,4,5,6-tetrahydro-2-pyrimidinyl)amino]butyl]-L-tyrosine]: the IC50 came out at 6 nM. For the molecule `O=C(CCCOc1ccc(C[C@H](Nc2nc3ccc(Br)cc3s2)C(=O)O)cc1)NC1=NCCCN1` [Example 8, N-(6-bromo-2-benzothiazolyl)-O-[4-oxo-4-[(1,4,5,6-tetrahydro-2-pyrimidinyl)amino]butyl]-L-tyrosine], the IC50 is 8 nM. The figure for `O=C(CCCOc1ccc(C[C@H](Nc2nc3cc(Br)cc(F)c3o2)C(=O)O)cc1)NC1=NCCCN1` [Example 9, N-[5-bromo-7-fluoro-2-benzoxazolyl)-O-[4-oxo-4-[(1,4,5,6-tetrahydro-2-pyrimidinyl)amino]butyl]-L-tyrosine] is 9 nM; for `O=C(CCc1ccc(C(=O)NC[C@H](Nc2nc3cc(Br)ccc3o2)C(=O)O)cc1)NC1=NCCCN1` [Example 10, N-(5-bromo-2-benzoxazolyl)-3-[[4-[3-oxo-3-[(1,4,5,6-tetrahydro-2-pyrimidinyl)amino]propyl]benzoyl]amino]-L-alanine] it is 6 nM; for `O=C(CCc1ccc(C(=O)NC[C@H](Nc2nc3ccc(Br)cc3s2)C(=O)O)cc1)NC1=NCCCN1` [Example 11, N-(6-bromo-2-benzothiazolyl)-3-[[4-[3-oxo-3-[(1,4,5,6-tetrahydro-2-pyrimidinyl)amino]propyl]benzoyl]amino]-L-alanine] it is 7 nM. As for `O=C(CCCOc1ccc(C[C@H](Nc2nc3cccc(F)c3o2)C(=O)O)cc1)NC1=NCCCN1` [Example 12, N-(7-fluoro-2-benzoxazolyl)-O-[4-oxo-4-[(1,4,5,6-tetrahydro-2-pyrimidinyl)amino]butyl]-L-tyrosine], the IC50 amounted to 9 nM. `O=C(CCCOc1ccc(C[C@H](Nc2nc3ccc(F)cc3o2)C(=O)O)cc1)NC1=NCCCN1` [Example 13, N-(6-fluoro-2-benzoxazolyl)-O-[4-oxo-4-[(1,4,5,6-tetrahydro-2-pyrimidinyl)amino]butyl]-L-tyrosine]: the IC50 is 7 nM. For `O=C(CCCOc1ccc(C[C@H](Nc2nc3cc(F)ccc3o2)C(=O)O)cc1)NC1=NCCCN1` [Example 14, N-(5-fluoro-2-benzoxazolyl)-O-[4-oxo-4-[(1,4,5,6-tetrahydro-2-pyrimidinyl)amino]butyl]-L-tyrosine trifluoroacetate] the value was 7 nM.

In the case of `O=C(CCCOc1ccc(C[C@H](Nc2nc3cccc(Cl)c3o2)C(=O)O)cc1)NC1=NCCCN1` [Example 15, N-(7-chloro-2-benzoxazolyl)-O-[4-oxo-4-[(1,4,5,6-tetrahydro-2-pyrimidinyl)amino]butyl]-L-tyrosine trifluoroacetate], the IC50 stood at 5 nM.

With `O=C(CCCOc1ccc(C[C@H](Nc2nc3ccc(Cl)cc3o2)C(=O)O)cc1)NC1=NCCCN1` [Example 16, N-(6-chloro-2-benzoxazolyl)-O-[4-oxo-4-[(1,4,5,6-tetrahydro-2-pyrimidinyl)amino]butyl]-L-tyrosine], the IC50 came to 9 nM. Take `O=C(CCCOc1ccc(C[C@H](Nc2nc3cc(Cl)ccc3o2)C(=O)O)cc1)NC1=NCCCN1` [Example 17, N-(5-chloro-2-benzoxazolyl)-O-[4-oxo-4-[(1,4,5,6-tetrahydro-2-pyrimidinyl)amino]butyl]-L-tyrosine]: the IC50 came to 9 nM. Consider `O=C(CCCOc1ccc(C[C@H](Nc2nc3cc(Br)ccc3o2)C(=O)O)cc1)NC1=NCCCN1` [Example 18, N-(5-bromo-2-benzoxazolyl)-O-[4-oxo-4-[(1,4,5,6-tetrahydro-2-pyrimidinyl)amino]butyl]-L-tyrosine trifluoroacetate], for which the IC50 came to 11 nM. `O=C(CCCOc1ccc(C[C@H](Nc2nc3cc4ccccc4cc3o2)C(=O)O)cc1)NC1=NCCCN1` [Example 19, N-(naphth[2,3-d]oxazol-2-yl)-O-[4-oxo-4-[(1,4,5,6-tetrahydro-2-pyrimidinyl)amino]butyl]-L-tyrosine]: the IC50 was 6 nM. Regarding `O=C(CCCOc1ccc(C[C@H](Nc2nc3c(ccc4ccccc43)o2)C(=O)O)cc1)NC1=NCCCN1` [Example 20, N-(naphth[1,2-d]oxazol-2-yl)-O-[4-oxo-4-[(1,4,5,6-tetrahydro-2-pyrimidinyl)amino]butyl]-L-tyrosine], the IC50 is 35 nM. For `O=C(CCCOc1ccc(C[C@H](Nc2nc3cc(-c4ccccc4)ccc3o2)C(=O)O)cc1)NC1=NCCCN1` [Example 21, O-[4-oxo-4-[(1,4,5,6-tetrahydro-2-pyrimidinyl)amino]butyl]-N-(5-phenyl-2-benzoxazolyl)-L-tyrosine] the value was 6 nM; for `O=C(CCCOc1ccc(C[C@H](Nc2nc3ccc([N+](=O)[O-])cc3o2)C(=O)O)cc1)NC1=NCCCN1` [Example 22, N-(6-nitro-2-benzoxazolyl)-O-[4-oxo-4-[(1,4,5,6-tetrahydro-2-pyrimidinyl)amino]butyl]-L-tyrosine], 8 nM; for `O=C(CCCOc1ccc(C[C@H](Nc2nc3cc(C(F)(F)F)ccc3o2)C(=O)O)cc1)NC1=NCCCN1` [Example 23, O-[4-oxo-4-[(1,4,5,6-tetrahydro-2-pyrimidinyl)amino]butyl]-N-[5-(trifluoromethyl)-2-benzoxazolyl)-L-tyrosine], 10 nM. As for `O=C(CCCOc1ccc(C[C@H](Nc2nc3ccc(F)c(F)c3o2)C(=O)O)cc1)NC1=NCCCN1` [Example 27, N-(6,7-difluoro-2-benzoxazolyl)-O-[4-oxo-4-[(1,4,5,6-tetrahydro-2-pyrimidinyl)amino]butyl]-L-tyrosine], the IC50 was 12 nM. For `O=C(CCCOc1ccc(C[C@H](Nc2nc3cc(Cl)cc(Cl)c3o2)C(=O)O)cc1)NC1=NCCCN1` [Example 28, N-(5,7-dichloro-2-benzoxazolyl)-O-[4-oxo-4-[(1,4,5,6-tetrahydro-2-pyrimidinyl)amino]butyl]-L-tyrosine], the IC50 amounted to 7 nM.

For `Cc1c(Cl)cc2nc(N[C@@H](Cc3ccc(OCCCC(=O)NC4=NCCCN4)cc3)C(=O)O)oc2c1Cl` [Example 29, N-(5,7-dichloro-6-methyl-2-benzoxazolyl)-O-[4-oxo-4-[(1,4,5,6-tetrahydro-2-pyrimidinyl)amino]butyl]-L-tyrosine], the IC50 came out at 10 nM.
